Data: patent US7838562B2, “Methods of inhibiting vascular permeability and apoptosis” (University of Connecticut, priority 2004, dated 2010)

What was measured:
SK2 = target: T1, SK2 (Mus musculus, UniProt Q9JIA7); conditions: SK2-[…]T; 100 μM FTY720 or (R)-AAL, 20 μM sphingosine
T1 sequence (Q9JIA7 1-617): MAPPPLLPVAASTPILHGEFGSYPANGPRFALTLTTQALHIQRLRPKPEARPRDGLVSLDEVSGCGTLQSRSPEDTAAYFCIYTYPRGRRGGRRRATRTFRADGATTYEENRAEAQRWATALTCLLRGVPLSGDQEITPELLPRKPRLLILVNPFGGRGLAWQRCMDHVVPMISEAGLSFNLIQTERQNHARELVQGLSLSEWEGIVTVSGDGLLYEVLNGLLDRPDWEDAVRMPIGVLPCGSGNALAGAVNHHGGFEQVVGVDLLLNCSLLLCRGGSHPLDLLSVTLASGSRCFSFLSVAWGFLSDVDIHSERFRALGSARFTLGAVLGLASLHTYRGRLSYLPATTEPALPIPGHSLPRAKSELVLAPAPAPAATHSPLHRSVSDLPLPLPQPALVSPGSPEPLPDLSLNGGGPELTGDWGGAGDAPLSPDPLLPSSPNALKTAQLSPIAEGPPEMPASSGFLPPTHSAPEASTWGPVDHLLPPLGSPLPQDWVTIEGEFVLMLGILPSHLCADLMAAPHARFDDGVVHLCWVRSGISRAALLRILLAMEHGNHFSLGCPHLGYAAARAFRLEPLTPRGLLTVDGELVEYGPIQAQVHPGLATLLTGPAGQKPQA

[1] = tested on: kinase activity present in HUVEC (sphingosine kinase); test: in vitro kinase assay with total cell extract from HUVEC; type: biochemical, human; conditions: HUVEC total cell extract; 100 μM FTY720 or AAL, 20 μM sphingosine; 30 minutes
Description: To confirm that FTY720 and (R)-AAL are phosphorylated by endothelial cells, an in vitro kinase assay was performed with both total cell extract and conditioned medium from HUVEC. […] Cells were scraped at 4° C. with 400 μl of 25 mM HEPES pH 7.5, […], 1× protease inhibitor mixture, and disrupted by brief sonication. Cellular homogenates were centrifuged for 10 minutes, 4° C. at 20,000×g. In the kinase assay, 300 μl of conditioned medium (derived from 5×10^5 cells for 3 hours of incubation) or 10 μg of total cell extract from HUVEC were used as a source of kinase activity. […] Lipids were extracted and samples were resuspended in 50 μl of chloroform. Lipids were resolved by TLC on Silica Gel G60 using 1-butanol/acetic acid/water (60/20/20 volume/volume) buffer and quantified with a PhosphorImager (Molecular Dynamics).

HUVEC = HUVEC migration (96 well chemotaxis microchamber)
Description: Briefly, polycarbonate filters with a pore size of 8 micrometers (μm) were coated with 5 micrograms per milliliter (μg/ml) fibronectin. […] Approximately 5×10^4 cells suspended in M199 with 0.1% bovine serum albumin were placed in the upper compartment. The cells were allowed to migrate for 4 hours at 37° C. in a humidified chamber with 5% CO2. After the incubation period, the filter was removed, and cells were stained in 0.1% crystal violet and eluted with 10% acetic acid in 96-well plates.
After incubation, conditioned medium was removed, centrifuged at 1,000×g for 10 minutes, and used in the migration assay.

VE-cadherin = VE-cadherin localization by immunofluorescence in HUVEC; type: cell-based, human; conditions: 30 minutes; 10 nM (S1P 100 nM)
Description: The effects of FTY720-P and (R)-AFD on the localization of VE-cadherin were studied using immunofluorescence analysis. In this study, 2×10^5 cells were plated in 35 millimeter glass bottom petri dishes. Three days later, the cells were washed and serum starved for 3 hours before treatments. Then, the cells were washed with ice-cold PBS, fixed, and immunofluorescence analysis with VE-cadherin antibody was conducted (1 μg/ml Santa Cruz). The primary antibody staining was visualized with Rhodamine-conjugated goat anti-mouse (1:1000, Cappel) IgG. Confocal microscopy was conducted on a Zeiss LSM 510 laser-scanning confocal microscope. Rhodamine fluorescence was excited using a 543 nm Helium/Neon laser and emitted fluorescence was detected with a […] long-pass filter.

[2] = tested on: VEGF-induced vascular permeability; test: mouse ear microvascular permeability assay (VEGF-induced); type: in vivo, FVB/N mice; conditions: mice, single oral administration (gavage, 50 μg) 5 hours prior
Description: The role of plasma borne FTY720-P or (R)-AFD in the regulation of vascular permeability was tested in vivo. In order to test this possibility, an in vivo vascular permeability model was used in FTY720, (R)-AFD or (S)-AAL-pretreated mice. […] Five hours post-gavage, animals were anesthetized with 2% Avertin™ (0.5 cc/20 g) and infused through the tail vein with 100 μl FITC-dextran (5 mg/ml, 165 kDa). Animals were placed on a warming table under a fluorescent dissecting microscope (Zeiss STV11, Zeiss, Inc.) and the central vessels in the ear were imaged. Control saline or mouse vascular endothelial growth factor (mVEGF, 10 ng/ml) was injected subdermally into the middle ear using a 30 gauge needle (30 μl). Ear vasculature was then imaged with fixed exposure times in a stationary position from 5 minutes to 120 minutes post-injection. Fluorescence images were then quantified using pixel-based threshold in ImageProPlus (Media Cybernetics, Inc.) and quantified.

phospho-Akt = test: Western blot of Akt phosphorylation in HUVEC; type: cell-based, human; conditions: 5 minute stimulation
Source text: (§1) Endothelial cell morphogenesis, a phenomenon that requires endothelial cell migration, survival and adherens junction assembly, is mediated by the ligand-dependent activation of S1P1 and S1P3 receptors. […] The effects of FTY720-P and analogs on Akt and ERK phosphorylation in HUVEC were studied in a Western blot analysis. Confluent cultures of HUVEC cells were serum starved for two hours in 0.1% ffa-BSA M199 before treatments. Then, they were washed with ice-cold phosphate buffered saline (PBS) containing 1 mM sodium fluoride and 1 mM sodium orthovanadate and homogenized in radioimmunoprecipitation assay buffer (0.1% sodium dodecyl sulfate (SDS), 0.5% sodium deoxycholate, 1% NP-40, 1 mM sodium orthovanadate, 50 mM β-glycerophosphate and 1× protease inhibitor cocktail). Samples were centrifuged 10,000×g for 10 minutes, and protein concentrations of supernatants were determined by Bradford assay (BioRad Protein Dye Reagent). Equal amounts of protein were separated on a 10% polyacrylamide gel and blotted to a nitrocellulose membrane. Immunoblot analysis was performed using Phospho-Akt, Akt, phospho-ERK1/2 or ERK-1/2 antibodies.

phospho-ERK-1/2 = test: Western blot of ERK-1/2 phosphorylation in HUVEC; type: cell-based, human; conditions: 5 minute stimulation
Source text: as §1

SK1 = SK1 (Mus musculus, UniProt Q8CI15); conditions: SK1-293T; 20 μM sphingosine
Chain of SK1 (Q8CI15 1-388 isoform Q8CI15-2): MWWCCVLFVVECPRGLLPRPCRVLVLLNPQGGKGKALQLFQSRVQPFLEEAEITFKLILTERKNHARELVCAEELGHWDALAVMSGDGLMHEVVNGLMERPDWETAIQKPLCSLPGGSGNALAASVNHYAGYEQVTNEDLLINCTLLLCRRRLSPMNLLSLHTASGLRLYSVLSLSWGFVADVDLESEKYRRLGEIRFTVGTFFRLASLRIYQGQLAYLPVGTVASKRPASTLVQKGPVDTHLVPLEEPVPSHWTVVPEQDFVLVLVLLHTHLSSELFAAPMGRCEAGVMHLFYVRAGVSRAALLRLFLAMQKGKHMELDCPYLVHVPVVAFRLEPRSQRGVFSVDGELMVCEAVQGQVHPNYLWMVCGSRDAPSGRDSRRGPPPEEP

CCCCCCCCc1ccc(CCC(N)(CO)CO)cc1 [FTY720, 2-amino-2-[2-(4-octaphenyl)ethyl]propane-1,3 diol, reference compound]
specific activity (phosphorylation of the substrate) (SK2): 41.6 pmol/min/mg
specific activity (phosphorylation of the substrate) [1]: 3.85 ± 0.75 pmol/mg/min
migration induced by conditioned medium (HUVEC; compound incubated with HUVEC for 3 hours, conditioned medium used as chemoattractant): activated into potent chemoattractants for endothelial cells
induction of endothelial cell migration (HUVEC; compound used directly as chemoattractant, 4 hours): Neither FTY720 nor its structural analog (R)-AAL induced endothelial cell migration
VE-cadherin localization at cell-cell contact regions / translocation to adherens junctions (VE-cadherin): did not induce VE-cadherin translocation to the adherens junctions
inhibition of vascular permeability induced by VEGF [2]: profoundly suppressed vascular permeability induced by VEGF
Akt phosphorylation (in words) (phospho-Akt): did not induce phospho-Akt or phospho-ERK-1/2 levels
ERK-1/2 phosphorylation (in words) (phospho-ERK-1/2): did not induce phospho-Akt or phospho-ERK-1/2 levels

CCCCCCCCCCCCC/C=C/[C@@H](O)[C@@H](N)CO [sphingosine, Sphingosine]
specific activity (phosphorylation of the substrate) (SK2): 319.9 pmol/min/mg
specific activity (phosphorylation of the substrate) [1]: 75.7 ± 6 pmol/mg/min
specific activity (phosphorylation of the substrate) (SK1): 48.1 pmol/mg/min
